Test results taken from article PMC10119930, “Dual Molecules Targeting 5-HT6 and GABA-A Receptors as a New Approach to Combat Depression Associated with Neuroinflammation” (ACS Chemical Neuroscience, 2023).

Tests used:
[1] = target: muscimol site of the GABA-A receptor; assay: Radioligand binding assay for GABA-A receptor ([3H]muscimol displacement, rat brain homogenate); details: competitive replacement of [3H]muscimol; ±S.E.M.
Description: The study was acquired according to the earlier protocols.[39] The rats’ brains were homogenized and prepared accurately according to the previous protocol.[39] On the day of the study, brain homogenates were thawed at room temperature and “diluted” in 20 volumes of ice-cold 50 mM Tris-HCl buffer (pH 7.4) and centrifuged (20.000g, 30 min, 0–4 °C). The assay was performed directly on 96-well microplates, which contained 50 mM Tris-HCl buffer (pH 7.4) in a total volume of 300 μL. Reaction mix included 240 μL of the brain tissue suspension, 30 μL of [^3H]-muscimol, and 30 μL solution of tested compounds (administrated at various concentrations: 10^–10–10^–5 M). […] The 96-well microplates containing the reaction mix were incubated for 10 min at 0 °C, followed by rapid filtration over glass fiber filters FilterMate B (PerkinElmer, USA) using the Harvester-96 MACH III FM (Tomtec, USA). The filter mats were dried using a microwave and then placed inside a plastic bag (PerkinElmer, USA). After that, they were soaked in 10 mL of Ultima Gold MV liquid scintillation cocktail (PerkinElmer, USA). […] Ki values were estimated according to the Cheng and Prusoff equation. The study was performed in duplicates. The statistical analysis was performed using (GraphPad Prism, version 4.0, San Diego, CA, USA).

[2] = Thermodynamic solubility in PBS; assay type: physicochemical; details: Dulbecco’s phosphate buffered saline, 22 °C, aqueous buffer, thermodynamic from solid, PBS pH 7.4, rt
Description: The temperature of the column was preserved at 30 °C. The experiment was conducted under the following conditions: a flow rate of 5 mL/min, eluent A (water/0.1% HCOOH), eluent B (MeCN/0.1% HCOOH), a gradient of starting from 0% of B to 100% of B over a duration of 3 min. Each sample was injected at a volume of 10 μL in triplicate. […] These solutions were then utilized to generate calibration curves by plotting AUC versus concentration in μg/mL. The examined molecules (2 mg) were dissolved in 1 mL of Dulbecco’s phosphate buffered saline (DPBS). The mixture was then continuously agitated at 22 °C for 24 h using a thermoshaker. Following this period, the mixtures were filtered through a cellulose acetate syringe filter (with a pore size of 0.22 μm), moved to a chromatographic vial, and analyzed. To quantify the investigated compounds, the areas beneath their respective peaks on DAD chromatograms were employed. Solubility was calculated using the calibration curves. […] All the experiments were performed in duplicate.

[3] = system: BV-2 microglia cells; assay: Anti-inflammatory assessment in LPS-stimulated BV-2 cells (NO, ROS, IL-6, TNF-α); assay type: cell-based, mouse; details: 10 μM pretreatment 1 h, then LPS 18 h
Description: Mouse microglial (BV-2) cell line was a generous gift from Prof. Bożena Kamińska-Kaczmarek of the Nencki Institute of Experimental Biology, Polish Academy of Sciences, Warsaw, Poland. The cell culture medium: Dulbecco’s modified with high glucose (DMEM, Glutamx ThermoFisher) and supplemented with 10% inactivated fetal bovine serum heat (ThermoFisher), 100 IU/mL penicillin (Merck) and 100 μg/mL streptomycin (Merck). Cell culture conditions: culture flasks (area 175 cm^2, Nunc), temperature of 37 °C, 5% CO2. For the assessment of the effect of tested compounds on the quantities of reactive oxygen species, nitric oxide, and inflammatory markers, the BV-2 cells were positioned in a 96-well culture plate (5 × 10^4 cells per well, Falcon). In the case of cell membrane damage assay, a 96-well culture plate (2 × 10^4 cells per well, Falcon) was used. The cells were cultured in the incubator (37 °C, 5% CO2) for 24 h prior to the assay. The tested compounds were dissolved in DMSO to achieve the concentration of 10^–2 M. Serial dilutions of the compounds were prepared in PBS and added directly to the medium containing adherent cells. The resulting mixtures were examined for any evidence of precipitation or opalescence before the assay. BV-2 cells were incubated with selected molecules (6, 16 at a concentration of 10 μM) during 1 h. Subsequently, lipopolysaccharide (100 ng/mL) was added and the resulting mixture was incubated for 18 h. Next, the culture supernatant was collected to measure the levels of nitric oxide (NO), reactive oxygen species (ROS), IL-6, and TNF-α according to the procedures described in detail below. All experiments were performed in duplicates, in three independent experiments.
The quantities of NO produced by the cells were determined using DAN reagent (2,3-diaminonaphthalene), rendering the method protocol described by Nussler et al.[48] After incubating at room temperature for 15 min, the fluorescence intensity (EX 360; EM 440 nm) was measured using a microplate reader POLARstar Omega from BMG Labtech. The amounts of NO were then calculated as a percentage of the control (which represents the maximal response of LPS). ROS measurement. The fluorescent dye 2,7-dichlorodihydrofluorescein diacetate (DCFH-DA)[49] was utilized to determine the quantity of ROS released by BV-2 cells. After a 30 min incubation period at 37 °C with 10 μM DCFH-DA, the fluorescence intensity (EX 490; EM 520 nm) was examined using a microplate reader POLARstar Omega from BMG Labtech. The amounts of ROS were then expressed as a percentage of the control (which represents the maximal response of LPS). The IL-6 and TNF-α levels detected in the culture supernatants were quantified using LANCE Ultra TR-FRET detection kit (PerkinElmer), rendering the manufacturer’s procedure. The detection of IL-6 and TNF-α was performed independently in a 384-well plate according to the instructions provided. To each well of the plate, 15 μL of sample was added followed by the addition of 5 μL of premixed antibody solution. After incubating IL-6 for 1 h and TNF-α for 3 h in the absence of light, at 22 °C, the plates were transferred to an EnVision plate reader (PerkinElmer). Measurements were conducted at 320 nm wavelength for excitation, at 615 nm for donor emission, and at 660 nm for acceptor emission. The final data were determined as the ratio of the 660 nm signal to the 615 nm signal. The results represent the levels of each cytokine determined as a percentage of control (considered as maximal cell response to LPS). The GraphPad program was used to conduct statistical analysis, with all outcomes presented as mean values with standard deviation (SD). Differences between groups were assessed using one-way ANOVA, followed by post hoc analysis (Dunnett’s multiple comparison tests). Results were considered statistically significant if the p-value was less than 0.05. […]

**Q.** With `Cc1c(OCc2ccccc2)cccc1N1CCN(CCOC(=O)CCCN)CC1.Cl.Cl` [Compound 16, 1-(2-((4-Ammoniobutanoyl)oxy)ethyl)-4-(3-(benzyloxy)-2-methylphenyl)piperazin-1-ium Dichloride] as the molecule, how does the Ki [1] read?
**A.** The Ki was 147 ± 12.7 nM.

**Q.** And the solubility at 24 h [2]?
**A.** Its solubility at 24 h is > 2000 µg/mL.

**Q.** And the “LPS-induced IL-6 production” value [3]?
**A.** The value was “significantly decreased”.

**Q.** What about the “LPS-induced NO production” value [3] of the same molecule?
**A.** The value was “significantly decreased”.

**Q.** What about the “LPS-induced ROS production” value [3] of the same molecule?
**A.** Its value is “significantly decreased”.

**Q.** What about the “LPS-induced TNF-α production” value [3] of the same molecule?
**A.** The value was “significantly decreased”.
